Where no end group is shown, it is not given here.
Legend:
[1] = system: PHB2/REA (Ser39) phosphorylation; test: Okadaic acid treatment, immunoblotting of PHB2/REA phosphorylation, MCF-7; format: cell-based, human
Protocol: FIG. 31-2 is a diagram illustrating that phosphorylation of ERAP1 by PKA and PKB regulates phosphorylation of PHB2/REA (S39) through the PP1α activity. […] (S39) is caused. MCF-7 cells suppressed for expression of PKA by siRNA method, were stimulated with 10 nM E2 for 24 hours. In addition, MCF-7 cells were treated with H-89 for 30 minutes and washed with PBS. Then, immediately, the cells were stimulated with 10 nM E2 for 24 hours. […] Then, immediately, the cells were stimulated with 10 nM E2 for 24 hours. […] MCF-7 cells suppressed for expression of PKCα by siRNA method were treated with 10 μM ERAP1 peptide. Then, immediately, the cells were stimulated with 10 nM E2 for 24 hours. The cells were fractionated into cytoplasm and nuclear fractions by specific gravity centrifugation.

[2] = system: PHB2/REA localization in MCF-7 cells; test: Nuclear translocation of PHB2/REA (fractionation, immunoblotting, immunostaining); format: cell-based, human; details: 1 hour to 24 hours after administration
Protocol: FIG. 3-1 is a diagram illustrating that ERAP1-peptide treatment promotes nuclear translocation of PHB2. […] MCF-7 cells were stimulated for 24 hours with 10 μM ERAP1-peptide and/or 10 nM E2. The cells were fractioned into mitochondria, cytoplasm, and nuclear fractions by specific gravity centrifugation. Then, each fraction was subjected to immunoblotting analysis using an anti-ERAP1 antibody and an anti-PHB2 antibody. PRDX3, α/β-Tublin (Tublin) and lamin B are markers for mitochondria, cytoplasm, and nuclear fractions, respectively (upper panel). The protein content of each fraction was evaluated with Coomassie-stained SDS-PAGE gel (lower panel). […] KPL-3C cells were treated for 24 hours with 10 μM HA-tagged ERAP1-peptide and/or 10 nM E2. Then, the cells were fractionated into cytoplasm and nuclear fractions by specific gravity centrifugation. Then, which fraction was immunoprecipitated with anti-ERα antibody, an anti-ERAP1 antibody or an anti-PHB2 antibody. Then, immunoblotting was performed with each antibody shown in the figure (an anti-ERAP1 antibody, an anti-ERα antibody, an anti-PHB2 antibody and an anti-HA antibody (Peptide)). α/β-Tubulin (Tubulin) and Lamin B are markers for cytoplasm and nuclear fractions, respectively.
FIG. 4-1 is a diagram illustrating that the ERAP1-peptide promotes nuclear translocation of PHB2. (A) The upper panel illustrates representative images of stained immune cells, showing the intracellular localization of PHB2. MCF-7 cells were treated with 10 μM ERAP1-peptide or ERAP1-scramble peptide. Subsequently, the cells were treated with 10 nM E2. After the immobilization, the cells were subjected to immunofluorescent staining using an anti-PHB2 antibody and DAPI (for discriminating the nucleus).
FIG. 4-2 is a diagram illustrating that the ERAP1-peptide promotes nuclear translocation of PHB2. (B) is a diagram illustrating the results of immunoblotting analysis by which the intracellular localization of PHB2 was detected, MCF-7 cells were treated with the ERAP1-peptide or the ERAP1-scramble peptide. Subsequently immediately, the cells were treated with 10 nM E2. The cells were fractionated into cytoplasm and nuclear fractions after 1 hour or 24 hours. Each fraction was immunoprecipitated with anti-ERα antibody, an anti-ERAP1 antibody or a PH82 antibody. […]
MCF-7 cells were seeded in an 8-well chamber (Laboratory-Tek II Chamber Slide System, Nalgen Nunc International, Naperville, Ill., USA) in 5×10^4 cells/well, and cultured under estrogen-free condition for 24 hours. […] The fluorescence image was obtained under Olympus IX71 microscope (Tokyo, Japan). […]

[3] = system: transcriptional activity of ERα (ERE); test: ERE-luciferase reporter assay in MCF-7 cells; format: cell-based, human; details: 10 nM E2 24 hours
Protocol: FIG. 3-2 is a diagram illustrating promotion effect of PHB2 nuclear translocation and suppression effect of the transcriptional activation of ER by ERAP1-peptide treatment. (C) illustrates representative images of stained immune cells, showing the localization of the ERAP1-peptide (HA-tagged ERAP1-peptide) and PHB2. MCF-7 cells were treated with 10 μM HA-tagged ERAP1-peptide for 24 hours in the presence or in the absence of 10 nM E2. After the immobilization, the cells were subjected to immunonfluorescent staining using an anti-HA antibody, an anti-PHB2 antibody and DAPI (for discriminating the nucleus). The arrow indicates the nuclear-translocated ERAP1-peptide. […] Then, immediately, the cells were stimulated with 10 nM E2 for 24 hours. TAM indicates the tamoxifen treatment.
FIG. 3-3 is as diagram illustrating the results of the luciferase assay by which the inhibition effect of the ERAP1-peptide was evaluated. MCF-7 cells temporarily transfected with an ERE-luciferase reporter vector (F) or an AP-1-luciferase reporter vector (F) were treated with the ERAP1-peptide, the scramble peptide or the mutant peptide in the concentrations shown in the […]. Then, immediately, the cells were stimulated with 10 nM E2 for 24 hours. TAM indicates the tamoxifen treatment.
FIG. 4-3 is a diagram illustrating that the ERAP1-peptide promotes nuclear translocation of PHB2. (C) and (D) are figures that show the results of the luciferase assay by which the inhibition effect of the ERAP1-peptide on the ERα transcriptional activity was evaluated. MCF-7 cells temporarily transfected with an ERE-luciferase reporter vector (C) or an AP-1-luciferase reporter vector (D) were treated with the ERAP1-peptide in the concentrations shown in the figure or 10 nM tamoxifen. Then, immediately, the cells were stimulated with 10 nM E2 thr 24 hours.
For ERE reporter assay, MCF-7 cells were transfected with ERE reporter (SABiosciences, Frederick, Md., USA) in accordance with the instruction of the manufacturer. For AP-1 reporter assay, MCF-7 cells were transfected with AP-1 reporter (mouse IL-11 promoter comprising two tandem AP-1 sites subcloned into PGL2-basic vector), c-fos, c-Jun and pRL-TK as an internal standard. After 16 hours from the transfection, the culture medium was exchanged with an assay culture medium (Opti-MEM, 10% FBS, 0.1 mM NEAA, 0.1 mM Sodium pyruvate and 10 μg/ml insulin) After 24 hours from the transfection, the cells were treated with E2 and/or the ERAP1-peptide or 24 hours. The cells were harvested, and the activities of luciferase and Renilla-luciferase were evaluated using Promega dual luciferase reporter assay (Tokyo, Japan). In consideration of the transfection efficiency, all of the data were standardized by the activity of Renilla-luciferase.

[4] = target: T1, binding of Flag-ERAP1 and His-PHB2/REA (Homo sapiens, UniProt Q99623); test: Ni-resin pull-down and Western of His-PHB2/REA with Flag-ERAP1 cell lysate; details: pull-down, each concentration
T1 construct: human PHB2 (residues 77-244); thioredoxin (TrxA) (N); TEV protease cut site (N); made in house; host or cells: PHB2: Escherichia coli BL21 star (DE3); Flag-ERAP1: lysate of transiently transfected COS-7 cells
T1 sequence (Q99623 77-244): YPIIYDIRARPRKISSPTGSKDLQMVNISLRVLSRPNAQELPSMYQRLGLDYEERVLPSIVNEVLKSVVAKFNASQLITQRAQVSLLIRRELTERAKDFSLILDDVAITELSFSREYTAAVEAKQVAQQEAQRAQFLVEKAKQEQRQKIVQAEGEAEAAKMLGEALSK
Protocol: FIG. 2 is a diagram illustrating the results of immunoblotting analysis by which binding of the ERAP1-peptide to PHB2 was evaluated. The cell lysate of the COS-7 cells temporarily transfected with the Flag-tagged ERAP1 plasmid was incubated for 1 hour together with 6×His-tagged recombinant PHB2 protein (10 μg) and the ERAP1-peptide, the ERAP1-scramble peptide, or the ERAP1-mutant peptide in each concentration shown in the figure. Then, His-PHB2 was subjected to pull-down with Ni-NTA agarose (Ni-resin).
The partial sequence of human PHB2 (residues 77-244) was cloned into NcoI and XhoI sites of pTAT6 expression vector (see gift by Dr. Marko Hyvonen, University of Cambridge.: Peranen J, et al., (1996). Anal Biochem. 236, 371-373.) so as to become inframe with the hexahistidine tag, thioredoxin (TrxA) and TEV protease cut site (TEV site) at the amino terminal. The recombinant protein was expressed in Escherichia coli BL21 star (DE3) cell line (Invitrogen, Carlsbad, Calif.), and purified using Hi-Trap Kit (GE Healthcare). Finally, the recombinant protein was purified according to the protocol of the supplier using superdex 200 gel filtration column (GE Healthcare) with high performance liquid chromatography (HPLC). […]

Compound | E2-dependent PHB2/REA phosphorylation (Ser39) ([1]; 20 nM of okadaic acid) | E2-dependent PHB2/REA phosphorylation (Ser39) ([1]; 40 μM) | nuclear translocation of PHB2/REA, temporal [2] | transcriptional activity of ERα in ERE [3] | direct binding to His-PHB2/REA [4] | inhibition of binding of Flag-ERAP1 and His-PHB2/REA [4]
C=C1[C@@H](O)[C@@H]2O[C@]3(CC[C@H](/C=C/[C@@H](C)[C@@H]4CC(C)=C[C@@]5(O[C@H](C[C@@](C)(O)C(=O)O)CC[C@H]5O)O4)O3)CC[C@H]2O[C@@H]1[C@@H](O)C[C@H](C)[C@H]1O[C@@]2(CCCCO2)CC[C@H]1C [okadaic acid] | recognized to be recovered | confirmed to decrease |  |  |  | 
ERAP1-HA-peptide: ERAP1-peptide to which HA tag was added (RRRRRRRRRRRQMLSDLTLQLRQR; also: HA tag added, place not given here) |  |  | directly bound to PHB2/REA and was nuclear-translocated at the same time | suppressed the transcriptional activity of ERα | directly bound to His-PHB2/REA, depending on the concentration | competitively inhibited
